Measured values published in the supplement of paper PMC11061612.

Assays:
Taselisib = compound: Cc1nc(-c2cn3c(n2)-c2ccc(-c4cnn(C(C)(C)C(N)=O)c4)cc2OCC3)n(C(C)C)n1 [Taselisib]; conditions: max 10 µM
Outline: (§1)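 Cancer cell lines were seeded into 1536-well plates in 7.5 μl medium (DMEM/F12 or RPMI, 10% FBS), held 24 hours at 37°C and 5% CO2, and dosed for 72 hours with final DMSO typically 0.2%. Luminescence from CellTiter-Glo 2.0, scaled between blank-well and DMSO-well means, served as viability. The single-agent IC50 was obtained from dose-response fits with a non-linear mixed effects model, each fit being a two-parameter logistic curve.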

AZD2811 = compound: CCN(CCO)CCCOc1ccc2c(Nc3cc(CC(=O)Nc4cccc(F)c4)[nH]n3)ncnc2c1 [AZD2811]; conditions: max 1 µM
Outline: as §1

AZD1390 = compound: CC(C)n1c(=O)n(C)c2cnc3cc(F)c(-c4ccc(OCCCN5CCCCC5)nc4)cc3c21 [AZD1390]; conditions: max 0.3 µM
Outline: as §1

Trametinib = compound: CC(=O)Nc1cccc(-n2c(=O)n(C3CC3)c(=O)c3c(Nc4ccc(I)cc4F)n(C)c(=O)c(C)c32)c1 [Trametinib]; conditions: max 1 µM
Outline: as §1

AZD1775 = compound: C=CCn1c(=O)c2cnc(Nc3ccc(N4CCN(C)CC4)cc3)nc2n1-c1cccc(C(C)(C)O)n1 [AZD1775]
Outline: as §1

AZD5991 = compound: Cc1c2c(nn1C)CSCc1cc(n(C)n1)CSc1cc(c3ccccc3c1)OCCCc1c(C(=O)O)n(C)c3c-2c(Cl)ccc13 [AZD5991]; conditions: max 1 µM
Outline: as §1

AZD4320 = compound: CN(CC[C@H](CSC1=CC=CC=C1)NC2=C(C=C(C=C2)S(=O)(=O)NC(=O)C3=CC=C(C=C3)N4CCC(CC4)[C@H](C5=CC=CC=C5C6=CC=C(C=C6)Cl)O)S(=O)(=O)C(F)(F)F)CCO [AZD4320]; conditions: max 1 µM
Outline: as §1

Lapatinib = compound: CS(=O)(=O)CCNCc1ccc(-c2ccc3ncnc(Nc4ccc(OCc5cccc(F)c5)c(Cl)c4)c3c2)o1 [Lapatinib]; conditions: max 10 µM
Outline: as §1

Palbociclib = compound: CC(=O)c1c(C)c2cnc(Nc3ccc(N4CCNCC4)cn3)nc2n(C2CCCC2)c1=O [Palbociclib]; conditions: max 10 µM
Outline: as §1

AZD0156 = compound: CN(C)CCCOc1ccc(-c2ccc3ncc4c(c3c2)n(C2CCOCC2)c(=O)n4C)cn1 [AZD0156]
Outline: as §1

5-Fluorouracil = compound: O=c1[nH]cc(F)c(=O)[nH]1 [5-Fluorouracil]; conditions: max 20 µM
Outline: as §1

SRA737 = compound: N#Cc1cnc(Nc2cc(NC[C@H]3CNCCO3)c(C(F)(F)F)cn2)cn1 [SRA737]; conditions: max 10 µM
Outline: as §1

Prexasertib = compound: COc1cccc(OCCCN)c1-c1cc(Nc2cnc(C#N)cn2)n[nH]1 [Prexasertib]; conditions: max 1 µM
Outline: as §1

Carboplatin = compound: C1CC(C1)(C(=O)[O-])C(=O)[O-].N.N.[Pt+2] [Carboplatin]; conditions: max 10 µM
Outline: as §1

Gefitinib = compound: COc1cc2ncnc(Nc3ccc(F)c(Cl)c3)c2cc1OCCCN1CCOCC1 [Gefitinib]; conditions: max 10 µM
Outline: as §1

[1] = compound: O=C(Nc1ccc2[nH]nc(-c3ccncc3)c2c1)[C@@H]1CCN(CC(=O)N2CCN(c3ccc(-c4ncccn4)cc3)CC2)C1; conditions: max 5 µM
Outline: as §1

Crizotinib = compound: C[C@@H](Oc1cc(-c2cnn(C3CCNCC3)c2)cnc1N)c1c(Cl)ccc(F)c1Cl [Crizotinib]; conditions: max 10 µM
Outline: as §1

Dasatinib = compound: CC1=C(C(=CC=C1)Cl)NC(=O)C2=CN=C(S2)NC3=CC(=NC(=N3)C)N4CCN(CC4)CCO [Dasatinib]; conditions: max 2 µM
Outline: as §1

MK-2206 = compound: NC1(c2ccc(-c3nc4ccn5c(=O)[nH]nc5c4cc3-c3ccccc3)cc2)CCC1 [MK-2206]; conditions: max 10 µM
Outline: as §1

AZD8186 = compound: C[C@@H](Nc1cc(F)cc(F)c1)c1cc(C(=O)N(C)C)cc2c(=O)cc(N3CCOCC3)oc12 [AZD8186]; conditions: max 10 µM
Outline: as §1

SG3199 = compound: CC1=CN2[C@@H](C1)C=NC3=CC(=C(C=C3C2=O)OC)OCCCCCOC4=C(C=C5C(=C4)N=C[C@@H]6CC(=CN6C5=O)C)OC [SG3199]; conditions: max 0.001 µM
Outline: as §1

AZD7648 = compound: Cc1cc2ncnn2cc1Nc1ncc2c(n1)n(C1CCOCC1)c(=O)n2C [AZD7648]; conditions: max 10 µM
Outline: as §1

Gemcitabine = compound: Nc1ccn([C@@H]2O[C@H](CO)[C@@H](O)C2(F)F)c(=O)n1 [Gemcitabine]; conditions: max 0.3 µM
Outline: as §1

Selumetinib = compound: Cn1cnc2c(F)c(Nc3ccc(Br)cc3Cl)c(C(=O)NOCCO)cc21 [Selumetinib]; conditions: max 10 µM
Outline: as §1

Olaparib = compound: O=C(c1cc(Cc2n[nH]c(=O)c3ccccc23)ccc1F)N1CCN(C(=O)C2CC2)CC1 [Olaparib]; conditions: max 10 µM
Outline: as §1

SN-38 = compound: CCc1c2c(nc3ccc(O)cc13)-c1cc3c(c(=O)n1C2)COC(=O)[C@]3(O)CC [SN-38]; conditions: max 0.3 µM
Outline: as §1

Alisertib = compound: COc1cc(Nc2ncc3c(n2)-c2ccc(Cl)cc2C(c2c(F)cccc2OC)=NC3)ccc1C(=O)O [Alisertib]; conditions: max 10 µM
Outline: as §1

Savolitinib = compound: C[C@@H](c1ccc2nccn2c1)n1nnc2ncc(-c3cnn(C)c3)nc21 [Savolitinib]; conditions: max 1 µM
Outline: as §1

Etoposide = compound: COc1cc([C@@H]2c3cc4c(cc3[C@@H](O[C@@H]3O[C@@H]5CO[C@@H](C)O[C@H]5[C@H](O)[C@H]3O)[C@H]3COC(=O)[C@H]23)OCO4)cc(OC)c1O [Etoposide]; conditions: max 10 µM
Outline: as §1

AZD5153 = compound: COc1nnc2ccc(N3CCC(c4ccc(OCCN5CCN(C)C(=O)[C@H]5C)cc4)CC3)nn12 [AZD5153]; conditions: max 1 µM
Outline: as §1

AZD5363 = compound: C1CN(CCC1(C(=O)N[C@@H](CCO)C2=CC=C(C=C2)Cl)N)C3=NC=NC4=C3C=CN4 [AZD5363]; conditions: max 10 µM
Outline: as §1

AZD6738 = compound: C[C@@H]1COCCN1C2=NC(=NC(=C2)C3(CC3)[S@](=N)(=O)C)C4=C5C=CNC5=NC=C4 [AZD6738]; conditions: max 10 µM
Outline: as §1

Paclitaxel = compound: CC(=O)O[C@H]1C(=O)[C@@]2(C)[C@H]([C@H](OC(=O)c3ccccc3)[C@]3(O)C[C@H](OC(=O)[C@H](O)[C@@H](NC(=O)c4ccccc4)c4ccccc4)C(C)=C1C3(C)C)[C@]1(OC(C)=O)CO[C@@H]1C[C@@H]2O [Paclitaxel]; conditions: max 3 µM
Outline: as §1

Doxorubicin = compound: COc1cccc2c1C(=O)c1c(O)c3c(c(O)c1C2=O)C[C@@](O)(C(=O)CO)C[C@@H]3O[C@H]1C[C@H](N)[C@H](O)[C@H](C)O1 [Doxorubicin]; conditions: max 1 µM
Outline: as §1

Venetoclax = compound: CC1(C)CCC(CN2CCN(c3ccc(C(=O)NS(=O)(=O)c4ccc(NCC5CCOCC5)c([N+](=O)[O-])c4)c(Oc4cnc5[nH]ccc5c4)c3)CC2)=C(c2ccc(Cl)cc2)C1 [Venetoclax]; conditions: max 1 µM
Outline: as §1

| Cell Line | IC50, cell viability 72 h (Taselisib) [nM] | IC50, cell viability 72 h (AZD2811) [nM] | IC50, cell viability 72 h (AZD1390) [nM] | IC50, cell viability 72 h (Trametinib) [nM] | IC50, cell viability 72 h (AZD1775; max 3 µM) [nM] | IC50, cell viability 72 h (AZD5991) [nM] | IC50, cell viability 72 h (AZD4320) [nM] | IC50, cell viability 72 h (Lapatinib) [nM] | IC50, cell viability 72 h (Palbociclib) [nM] | IC50, cell viability 72 h (AZD0156; max 3 µM) [nM] | IC50, cell viability 72 h (5-Fluorouracil) [nM] | IC50, cell viability 72 h (SRA737) [nM] | IC50, cell viability 72 h (Prexasertib) [nM] | IC50, cell viability 72 h (Carboplatin) [nM] | IC50, cell viability 72 h (Gefitinib) [nM] | IC50, cell viability 72 h [1] [nM] | IC50, cell viability 72 h (Crizotinib) [nM] | IC50, cell viability 72 h (Dasatinib) [nM] | IC50, cell viability 72 h (MK-2206) [nM] | IC50, cell viability 72 h (AZD8186) [nM] | IC50, cell viability 72 h (SG3199) [nM] | IC50, cell viability 72 h (AZD7648) [nM] | IC50, cell viability 72 h (Gemcitabine) [nM] | IC50, cell viability 72 h (Selumetinib) [nM] | IC50, cell viability 72 h (Olaparib) [nM] | IC50, cell viability 72 h (SN-38) [nM] | IC50, cell viability 72 h (Alisertib) [nM] | IC50, cell viability 72 h (Savolitinib) [nM] | IC50, cell viability 72 h (Etoposide) [nM] | IC50, cell viability 72 h (AZD5153) [nM] | IC50, cell viability 72 h (AZD5363) [nM] | IC50, cell viability 72 h (AZD6738) [nM] | IC50, cell viability 72 h (Paclitaxel) [nM] | IC50, cell viability 72 h (Doxorubicin) [nM] | IC50, cell viability 72 h (Venetoclax) [nM] | IC50, cell viability 72 h (AZD1775; max 1 µM) [nM] | IC50, cell viability 72 h (AZD0156; max 1 µM) [nM] |
| --- | --- | --- | --- | --- | --- | --- | --- | --- | --- | --- | --- | --- | --- | --- | --- | --- | --- | --- | --- | --- | --- | --- | --- | --- | --- | --- | --- | --- | --- | --- | --- | --- | --- | --- | --- | --- | --- |
| OVMIU (Ovarian Carcinoma) | 148 | > 1000 | > 300 | 70 | 1720 | > 1000 | > 1000 | 3240 | > 10000 | > 3000 | > 20000 | > 10000 | 267 | > 10000 | 3200 | 3190 | > 10000 | 209 | > 10000 | > 10000 | > 1 | > 10000 | > 300 | > 10000 | > 10000 | > 300 | 7010 | > 1000 | > 10000 | 302 | > 10000 | > 10000 | 77.7 | 801 | > 1000 |  |  |
| TE-8 (Esophageal Squamous Cell Carcinoma) | 2650 | > 1000 | > 300 | 633 |  | > 1000 | > 1000 | > 10000 | > 10000 |  | > 20000 | > 10000 | 24.3 | > 10000 | > 10000 | 3840 | > 10000 | 362 | > 10000 | > 10000 | > 1 | > 10000 | > 300 | > 10000 | > 10000 | 169 | 5140 | > 1000 | > 10000 | > 1000 | > 10000 | 4150 | 109 | > 1000 | > 1000 | 503 | > 1000 |
| SK-MEL-2 (Melanoma) | > 10000 | > 1000 | > 300 | 32.4 | > 3000 | 343 | > 1000 | > 10000 | > 10000 | > 3000 | > 20000 | > 10000 |  | > 10000 | > 10000 | 716 | > 10000 | > 2000 | > 10000 | > 10000 |  | > 10000 | > 300 | 3990 | > 10000 | > 300 |  | > 1000 | > 10000 | 345 | > 10000 | > 10000 | 402 |  | > 1000 |  |  |
| L-1236 (Hodgkin's Lymphoma) | 9380 | > 1000 | > 300 | > 1000 | 85.4 | > 1000 | 89.5 | > 10000 | 6340 | > 3000 | > 20000 | 969 | 32.7 | > 10000 | > 10000 | > 5000 | 1940 | > 2000 | 8400 | 2080 | > 1 | > 10000 | 17.7 | > 10000 | > 10000 | 62.4 | > 10000 | > 1000 | 3350 | 13.2 | 2810 | 3960 | 36.2 | > 1000 | 861 |  |  |
| VAL (B-Cell Non-Hodgkin's Lymphoma) | 2280 | 141 | > 300 | > 1000 | 416 | 446 | 36.5 | > 10000 | 2660 | > 3000 | > 20000 | 1470 | 6.12 | > 10000 | > 10000 | > 5000 | 4620 | 91.9 | 1870 | 2450 | > 1 | 8520 | 8.94 | > 10000 | 8570 | 1.77 | 60.6 | > 1000 | 261 | 61.8 | 5130 | 1030 | 57.3 | 28 | 31.5 |  |  |
